The text below walks through data of ChEMBL document CHEMBL5120978, “Application of Compositions Comprising a KRAS G12C Inhibitor and an EGFR Inhibitor for the Potential Treatment of Cancer” (2022).

Common to all, as to assay type: functional
Test [1] concerns NCI-H2122. Kind of test: Anti-tumor activity against human NCI-H2122 cells xenografted with nude mouse assessed as inhibition of tumor growth inhibition at 50 mg/kg, po QD for 21 days relative to control. The settings on record: NCI-H2122, 504 h, time 21 day, read-out: TGI. Background: Xenograft models place foreign cells or tissue in a host animal.
In test [2] the test system is NCI-H2122. Kind of test: Anti-tumor activity against human NCI-H2122 cells xenografted with nude mouse assessed as inhibition of tumor growth inhibition at 50 mg/kg, po QD for 21 days co-treated with 50 mg/kg, po QD Erlotinib relative to control. As to conditions: NCI-H2122, 504 h, time 21 day, read-out: TGI.
Test [3] is described as follows: Anti-tumor activity against human PDX CR6256 cells xenografted with nude BALB/c mouse assessed as inhibition of tumor growth inhibition at 30 mg/kg, po QD for 21 days co-treated with 20 mg/kg, ip QD Cetuximab relative to control. The settings on record: PDX CR6256, 504 h, time 21 day, read-out: TGI.

With `C=CC(=O)N1CCN(c2nc(OC[C@@H]3CCCN3C)nc3c(F)c(-c4nc(N)cc(C)c4C(F)(F)F)c(Cl)cc23)[C@@H](C)C1` [DIVARASIB], the inhibition in vivo at 50 mg/kg in the test on NCI-H2122 [1] stood at 93%; in the test with NCI-H2122 [2], 117%. Further, the inhibition in vivo at 30 mg/kg in test [3] came out at 133%.
Turning to `C#Cc1cccc(Nc2ncnc3cc(OCCOC)c(OCCOC)cc23)c1` [ERLOTINIB], the inhibition in vivo at 50 mg/kg with NCI-H2122 [1] amounted to 48%.
